The experiment concerns the target fully phosphorylated, mouse aERK2 enzyme (Mus musculus (Mouse), UniProt P63085). Nature of the experiment: Active ERK2 (aERK) IMAP-FP assay, condition 2. The experiment is classed as biochemical. The method in brief:
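Phosphorylation by fully phosphorylated mouse ERK2 ran 40-45 min, then quenched with IMAP beads (1:1000) in binding buffer; fluorescence polarization read after 30 min binding equilibration.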

Where [1] appears, read: active ERK2, read-out: aErk2 Ic50.
[2] abbreviates: aERK assay condition 2, 30 uM ATP, read-out: aERK IC50.

Where “and” joins values, the source holds several entries; their conditions need not be identical. Equal values may be shown once. Read-outs that look alike come from different tables or passages of the source.

Sequence of fully phosphorylated, mouse aERK2 enzyme (P63085 whole entry): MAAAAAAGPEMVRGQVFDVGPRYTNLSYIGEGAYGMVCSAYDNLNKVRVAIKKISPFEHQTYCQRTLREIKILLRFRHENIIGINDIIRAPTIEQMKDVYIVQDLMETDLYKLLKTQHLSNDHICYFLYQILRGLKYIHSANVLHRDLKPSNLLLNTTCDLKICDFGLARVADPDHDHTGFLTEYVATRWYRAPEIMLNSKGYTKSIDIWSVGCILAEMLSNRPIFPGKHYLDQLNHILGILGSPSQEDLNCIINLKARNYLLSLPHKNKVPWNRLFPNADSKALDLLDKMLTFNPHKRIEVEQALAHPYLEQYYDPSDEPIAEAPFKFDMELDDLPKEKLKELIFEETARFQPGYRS

`COc1cccc(F)c1CN1C[C@H](NC(=O)c2ccc3[nH]nc(-c4ccnc(C)c4)c3c2)CC[C@H]1C(=O)NOC(C)(C)C` [N-[(3R,6S)-6-(tert-butoxycarbamoyl)-1-(2-fluoro-6-methoxybenzyl)piperidin-3-yl]-3-(2-methylpyridin-4-yl)-1H-indazole-5-carboxamide]: under setting [1], the IC50 came out at 26.2 nM. On to `COc1cccc(F)c1CN1C[C@H](NC(=O)c2ccc3[nH]nc(-c4ccnc(C)c4)c3c2)CC[C@H]1C(=O)NN(C)C` [N-[(3R,6S)-6-[(2,2-dimethylhydrazino)-carbonyl]-1-(2-fluoro-6-methoxybenzyl)-piperidin-3-yl]-3-(2-methylpyridin-4-yl)-1H-indazole-5-carboxamide], for which, under setting [1], the IC50 amounted to 12.2 nM. With `COc1cccc(F)c1CN1C[C@H](NC(=O)c2ccc3[nH]nc(-c4ccnc(C)c4)c3c2)CC[C@H]1C(=O)Nc1ccc(C)cc1C` [N-[(3R,6S)-6-[(2,4-dimethylphenyl)carbamoyl]-1-(2-fluoro-6-methoxybenzyl)piperidin-3-yl]-3-(2-methylpyridin-4-yl)-1H-indazole-5-carboxamide], the IC50 under setting [2] turned out to be 54.8 nM.

As for `COc1cccc(F)c1CN1C[C@H](NC(=O)c2ccc3[nH]nc(-c4ccnc(C)c4)c3c2)CC[C@H]1C(=O)NCCF` [N-[(3R,6S)-6-[(2-fluoroethyl)carbamoyl]-1-(2-fluoro-6-methoxybenzyl)piperidin-3-yl]-3-(2-methylpyridin-4-yl)-1H-indazole-5-carboxamide], the IC50 under setting [1] is 9 nM. The same measure, in the same setting: next, `Cc1cc(-c2n[nH]c3ccc(C(=O)N[C@@H]4CC[C@@H](C(=O)N5CC(F)(F)C5)N(Cc5c(F)cccc5F)C4)cc23)ccn1` [N-[(3R,6S)-6-[(3,3-difluoroazetidin-1-yl)carbonyl]-1-(2,6-difluorobenzyl)piperidin-3-yl]-3-(2-methylpyridin-4-yl)-1H-indazole-5-carboxamide]: 96.5 nM. Still for that read-out and setting: next, `COc1cccc(F)c1CN1C[C@H](NC(=O)c2ccc3[nH]nc(-c4ccc5nc(C)sc5c4)c3c2)CC[C@H]1C(=O)N1CC(F)(F)C1` [N-[(3R,6S)-6-[(3,3-difluoroazetidin-1-yl)carbonyl]-1-(2-fluoro-6-methoxybenzyl)-piperidin-3-yl]-3-(2-methyl-1,3-benzothiazol-6-yl)-1H-indazole-5-carboxamide]: 47.4 nM; `COc1cccc(F)c1CN1C[C@H](NC(=O)c2ccc3[nH]nc(-c4ccnc(C)c4)c3c2)CC[C@H]1C(=O)N1CC(F)(F)C1` [N-[(3R,6S)-6-[(3,3-difluoroazetidin-1-yl)carbonyl]-1-(2-fluoro-6-methoxybenzyl)-piperidin-3-yl]-3-(2-methylpyridin-4-yl)-1H-indazole-5-carboxamide]: 14.8 nM and 10.4 nM. The same measure, in the same setting: next, `COc1cccc(F)c1CN1C[C@H](NC(=O)c2ccc3[nH]nc(-c4ccnnc4)c3c2)CC[C@H]1C(=O)N1CC(F)(F)C1` [N-[(3R,6S)-6-[(3,3-difluoroazetidin-1-yl)carbonyl]-1-(2-fluoro-6-methoxybenzyl)-piperidin-3-yl]-3-pyridazin-4-yl-1H-indazole-5-carboxamide]: 61.2 nM; `Cc1cc(-c2n[nH]c3ccc(C(=O)N[C@@H]4CC[C@@H](C(=O)N5CC(F)(F)C5)N(Cc5ccccc5F)C4)cc23)ccn1` [N-[(3R,6S)-6-[(3,3-difluoroazetidin-1-yl)carbonyl]-1-(2-fluorobenzyl)piperidin-3-yl]-3-(2-methylpyridin-4-yl)-1H-indazole-5-carboxamide]: 56.6 nM. `Cc1cc(-c2n[nH]c3ccc(C(=O)N[C@@H]4CC[C@@H](C(=O)N5CC(F)(F)C5)N(CCc5ccccc5)C4)cc23)ccn1` [N-[(3R,6S)-6-[(3,3-difluoroazetidin-1-yl)carbonyl]-1-(2-phenylethyl)piperidin-3-yl]-3-(2-methylpyridin-4-yl)-1H-indazole-5-carboxamide]: under setting [1], the IC50 worked out at 232 nM. Still for that read-out and setting: next, `Cc1cc(-c2n[nH]c3ccc(C(=O)N[C@@H]4CC[C@@H](C(=O)N5CC(F)(F)C5)N(Cc5cccs5)C4)cc23)ccn1` [N-[(3R,6S)-6-[(3,3-difluoroazetidin-1-yl)carbonyl]-1-(thiophen-2-ylmethyl)-piperidin-3-yl]-3-(2-methylpyridin-4-yl)-1H-indazole-5-carboxamide]: 25.8 nM.

Consider `COc1cccc(F)c1CN1C[C@H](NC(=O)c2ccc3[nH]nc(-c4ccnc(C)c4)c3c2)CC[C@H]1C(=O)NCCCCl` [N-[(3R,6S)-6-[(3-chloropropyl)carbamoyl]-1-(2-fluoro-6-methoxybenzyl)piperidin-3-yl]-3-(2-methylpyridin-4-yl)-1H-indazole-5-carboxamide], for which the concentration for half-maximal inhibition (IC50) under setting [1] is 11.8 nM.

Turning to `COc1cccc(F)c1CN1C[C@H](NC(=O)c2ccc3[nH]nc(-c4ccnc(C)c4)c3c2)CC[C@H]1C(=O)N1CCN(C(C)=O)CC1` [N-[(3R,6S)-6-[(4-acetylpiperazin-1-yl)carbonyl]-1-(2-fluoro-6-methoxybenzyl)-piperidin-3-yl]-3-(2-methylpyridin-4-yl)-1H-indazole-5-carboxamide], the IC50 under setting [1] amounted to 19.1 nM. Same read-out and setting: the same measure for `COc1cccc(F)c1CN1C[C@H](NC(=O)c2ccc3[nH]nc(-c4ccnc(C)c4)c3c2)CC[C@H]1C(=O)N1CCC(Cl)CC1` [N-[(3R,6S)-6-[(4-chloropiperidin-1-yl)carbonyl]-1-(2-fluoro-6-methoxybenzyl)-piperidin-3-yl]-3-(2-methylpyridin-4-yl)-1H-indazole-5-carboxamide]: 48.3 nM. `COc1cccc(F)c1CN1C[C@H](NC(=O)c2ccc3[nH]nc(-c4ccnc(C)c4)c3c2)CC[C@H]1C(=O)NOCC1CC1` [N-[(3R,6S)-6-[(cyclopropylmethoxy)carbamoyl]-1-(2-fluoro-6-methoxybenzyl)piperidin-3-yl]-3-(2-methylpyridin-4-yl)-1H-indazole-5-carboxamide]: the IC50 under setting [2] was found to be 0.6 nM. On to `COc1cccc(F)c1CN1C[C@H](NC(=O)c2ccc3[nH]nc(-c4ccnc(C)c4)c3c2)CC[C@H]1C(=O)NCC1CC1` [N-[(3R,6S)-6-[(cyclopropylmethyl)carbamoyl]-1-(2-fluoro-6-methoxybenzyl)piperidin-3-yl]-3-(2-methylpyridin-4-yl)-1H-indazole-5-carboxamide], for which the 50% inhibitory concentration (IC50) under setting [2] stood at 4.9 nM. On the same count and under the same terms, the same measure for `COc1cccc(F)c1CN1C[C@H](NC(=O)c2ccc3[nH]nc(-c4ccnc(C)c4)c3c2)CC[C@H]1C(=O)N(C)C1CC1` [N-[(3R,6S)-6-[cyclopropyl(methyl)carbamoyl]-1-(2-fluoro-6-methoxybenzyl)piperidin-3-yl]-3-(2-methylpyridin-4-yl)-1H-indazole-5-carboxamide]: 2.5 nM. For the compound `CCN(C)C(=O)[C@@H]1CC[C@@H](NC(=O)c2ccc3[nH]nc(-c4ccnc(C)c4)c3c2)CN1Cc1c(F)cccc1OC` [N-[(3R,6S)-6-[ethyl(methyl)carbamoyl]-1-(2-fluoro-6-methoxybenzyl)piperidin-3-yl]-3-(2-methylpyridin-4-yl)-1H-indazole-5-carboxamide], the concentration for half-maximal inhibition (IC50) under setting [1] came to 21.8 nM.

For `COc1cccc(F)c1CN1C[C@H](NC(=O)c2ccc3[nH]nc(-c4ccc5nc(C)sc5c4)c3c2)CC[C@H]1C(N)=O` [N-[(3R,6S)-6-carbamoyl-1-(2-fluoro-6-methoxybenzyl)piperidin-3-yl]-3-(2-methyl-1,3-benzothiazaol-6-yl)-1H-indazole-5-carboxamide], the IC50 under setting [1] was 3.6 nM.

As usually defined, the IC50 is the point on the concentration scale where inhibition reaches its midpoint.

The values above are taken from US8999957B2, “Heterocyclic compounds as ERK inhibitors” (Merck Sharp & Dohme Corp., priority 2010, dated 2015).
